According to ChEMBL document CHEMBL3994640, “Klyflaccisteroids K-M, bioactive steroidal derivatives from a soft coral Klyxum flaccidum” (Bioorg Med Chem Lett, 2017):
pIC50: −log10 of the molar value.

Tests used:
HT-29 = assay: Cytotoxicity against human HT-29 cells after 72 hrs by alamar blue assay; assay type: functional, cell-based; settings: HT-29, 72 h
Neutrophil [1] = assay: Anti-inflammatory activity in human neutrophils assessed as inhibition of fMLP/CB-induced elastase release preincubated for 5 mins followed by fMLP/CB stimulation for 10 mins using MeO-Suc-Ala-Ala-Pro-Val-p-nitroanilide as substrate; assay type: functional, cell-based
Neutrophil [2] = assay: (§1) Anti-inflammatory activity in human neutrophils assessed as inhibition of fMLP/CB-induced superoxide anion generation preincubated for 5 mins followed by cytochalasin B addition for 3 mins and fMLP for 10 mins by superoxide dismutase inhibitable reduction of ferricytochrome c based assay; assay type: functional, cell-based
P388 = assay: Cytotoxicity against mouse P388 cells after 72 hrs by alamar blue assay; assay type: functional, cell-based; settings: P388, 72 h
A549 = assay: Cytotoxicity against human A549 cells after 72 hrs by alamar blue assay; assay type: functional, cell-based; settings: A549, 72 h
Neutrophil [3] = assay: Anti-inflammatory activity in human neutrophils assessed as inhibition of fMLP/CB-induced elastase release at 10 uM preincubated for 5 mins followed by fMLP/CB stimulation for 10 mins using MeO-Suc-Ala-Ala-Pro-Val-p-nitroanilide as substrate; assay type: functional
Neutrophil [4] = assay: as §1, with “generation at 10 uM” for “generation”, “assay relative to control” for “assay”; assay type: functional
K562 = assay: Cytotoxicity against human K562 cells after 72 hrs by alamar blue assay; assay type: functional, cell-based; settings: K562, 72 h
DLD-1 = assay: Cytotoxicity against human DLD1 cells after 72 hrs by alamar blue assay; assay type: functional, cell-based; settings: DLD-1, 72 h

| pIC50 (Neutrophil [1]) | pIC50 (Neutrophil [2]) | SMILES | pIC50 (HT-29) | pIC50 (P388) | pIC50 (A549) | inhibition at 10 µM (Neutrophil [3]) | inhibition at 10 µM (Neutrophil [4]) | pIC50 (K562) | pIC50 (DLD-1) |
| --- | --- | --- | --- | --- | --- | --- | --- | --- | --- |
|  |  | COc1cccc2c1C(=O)c1c(O)c3c(c(O)c1C2=O)C[C@@](O)(C(=O)CO)C[C@@H]3O[C@H]1C[C@H](N)[C@H](O)[C@H](C)O1 [DOXORUBICIN] | 6.06 |  |  |  |  |  |  |
| < 5.00 | < 5.00 | CC(C)[C@@H](C)[C@@]1(C)C[C@@H]1[C@@H](C)[C@H]1CC[C@H]2[C@@H]3[C@H](O)C=C4C[C@@H](O)CC[C@]4(C)[C@@]3(O)OC[C@]12C | < 4.40 | < 4.40 | < 4.40 | 25.2% | 1.21% | < 4.40 | < 4.40 |
| 5.23 | < 5.00 | CC(C)[C@@H](C)C[C@H](O)[C@@H](C)[C@H]1CC[C@H]2[C@@H]3[C@@H](O)C=C4C[C@@H](O)CC[C@]4(C)[C@H]3CC[C@]12C | 4.44 | 4.50 | < 4.40 | 79.2% | 12.6% | < 4.40 | < 4.40 |

| SMILES | pIC50 (Neutrophil [1]) | pIC50 (Neutrophil [2]) | pIC50 (HT-29) | pIC50 (P388) | pIC50 (A549) | inhibition at 10 µM (Neutrophil [3]) | inhibition at 10 µM (Neutrophil [4]) | pIC50 (K562) | pIC50 (DLD-1) |
| --- | --- | --- | --- | --- | --- | --- | --- | --- | --- |
| CC(C)[C@@H](C)[C@@]1(C)C[C@@H]1[C@@H](C)[C@H]1CC[C@@H]([C@@]23C=C[C@]4(C[C@@H](O)CC[C@]4(C)C2=O)OO3)[C@]1(C)CCO | 5.81 | 5.23 | 4.56 | < 4.40 | 4.80 | 111% | 67% | 4.65 | 4.56 |
